From patent publication US11464953B2, “Water-soluble microneedle spicules and non-aqueous cosmetic composition containing the same” (PAEAN AESTHETICS INC., priority 2015, dated 2022)

Test: HPLC stability test of vitamin C in non-aqueous cosmetics
Type: physicochemical
Settings: maintained for 24 months
Description: To confirm the stability of vitamin C (ascorbic acid) contained in non-aqueous cosmetics, the content of the reduced form of ascorbic acid was measured by HPLC for 24 months. The non-aqueous cosmetics in an amount of 0.1 g was collected and distilled water was added to a final volume of 1 mL, and vehemently mixed. Then, the water-soluble ascorbic acid was eluted and the aqueous solution containing ascorbic acid was diluted and used for analysis. The column used was the C18 (4.6×150 mm) and 0.025 M phosphoric acid (pH 2.5) was used for the mobile phase. After adding 10 mM DTT to a 100-fold diluted sample for analysis, the amounts of the reduced form in the sample in which ascorbic acid was all converted to a reduced form and the sample in which 10 mM DTT was not added were compared and thereby the amounts of the ascorbic acid in the reduced form contained in the cosmetics were confirmed. The samples were prepared for 0, 3, 6, 9, 12, 18, and 24 months and analyzed by HPLC. […] The amounts of ascorbic acid in the reduced form was calculated as follows. [table]

O=C1O[C@H]([C@@H](O)CO)C(O)=C1O [ascorbic acid]
content of ascorbic acid in the reduced form (Initial AA/Total AA × 100): ≥ 96%
